For orientation: Kd means the concentration at which binding is half-saturated.

Marks after values point to notes of the source that are not given here.

One series deals with T1, mFAP2b.
T1 construct: de novo designed beta-barrel; large-scale purification and SEC
In words: Fluorescence titration of DFHBI or DFHBI-1T into 20.0 nM purified protein in high-salt Tev cleavage buffer (25.0 mM Tris, 100 mM NaCl, pH 8.00), excitation 468 nm and emission 530 nm, means of eight technical replicates fit to a single-binding site isotherm. Conditions: n = 8. The source says: (§1) Fig. 1 Characterization of brighter and chromophore-specific mFAPs. a Computational model of de novo designed β-barrel variant mFAP2b showing protein backbone (cartoon) and bound DFHBI chromophore (sticks). b, c Chemical structures of DFHBI and DFHBI-1T, respectively. d, e In vitro titration of d DFHBI or e DFHBI-1T with mFAP2 (gray), mFAP2b (lime), mFAP2a (violet), and mFAP10 (pink) proteins. Error bars represent s.d. of the mean of eight technical replicates. […] The images (left) are the pseudocolored normalized fluorescence intensity per pixel. Scale bars represent 10 microns. Imaging was independently repeated twice with similar results. The computational models (right) show the residues unique to mFAP2b (V13, M15) (lime sticks) or mFAP2a (A13, F15) (violet sticks). Intermolecular hydrogen bonds to the chromophore are shown as black dotted lines. […] Source data is available for Fig. 1f–i.
(§2) Fluorescence endpoints were measured on a Synergy Neo2 hybrid multi-mode reader (BioTek) in flat bottom, black polystyrene, non-binding surface 96-well microplates (Corning 3650). In measuring chromophore-binding affinities (Fig. 1d, e), mFAP2, mFAP2a, and mFAP2b, and mFAP10 were produced by large-scale protein purification and SEC purification. Proteins were aliquoted in eight technical replicates in 200 μL final volumes to 20.0 nM final concentration in ten serial dilutions ( 10 dilution factor) of DFHBI starting from 31.6 μM DFHBI or 31.6 μM DFHBI-1T final concentrations, including an eleventh condition without chromophore. Fluorescence was excited at λex = 468 nm and fluorescence emission measured at λem = 530 nm. Background fluorescence endpoints of wells with identical chromophore concentrations but purified protein replaced with an identical volume of high-salt Tev cleavage buffer were measured, and fluorescence endpoints subtracted from those measured with protein. Background-subtracted data were averaged and the means normalized from 0 to 1 and fit to a single-binding site isotherm function using non-linear least squares fitting to obtain a fitted Kd value (Table 1), and the fit scaled to the maximum mean value (Fig. 1d, e).

A further series deals with T2, mFAP2a.
T2 construct: de novo designed beta-barrel; large-scale purification and SEC
The series is described as above. Conditions: n = 8.
Text: as §1, §2

The target in a further series is T3, mFAP10.
T3 construct: de novo designed beta-barrel; large-scale purification and SEC
Described as above. The conditions noted are these: n = 8.
Text: as §1, §2

Series [1] addresses T4, mFAP_pH.
T4 construct: de novo designed beta-barrel; large-scale protein purification
Briefly: Fluorescence titration of DFHBI into 500 nM protein in Na2HPO4-citrate buffer with 143 mM NaCl at pH 3.61 (excitation 379 nm, emission 498 nm), fit to a single-binding site isotherm. The conditions noted are these: read-out: affinities (Kd values), phenolic form of DFHBI. As to the method:
(§3) In measuring the protonated (phenolic) and deprotonated (phenolate) DFHBI affinities with mFAP_pH (Supplementary Fig. 5c), fluorescence endpoints were measured on a Synergy Neo2 hybrid multi-mode reader (BioTek) in flat bottom, black polystyrene, non-binding surface 96-well microplates (Corning 3650). mFAP_pH was produced by large-scale protein purification[49] and aliquoted to 200 μL final volumes at 500 nM final concentration in seven serial dilutions ( 10 dilution factor) of DFHBI starting from 10.0 μM DFHBI final concentration, including an eighth condition without chromophore, in Na2HPO4-citrate buffer supplemented with 143 mM NaCl final concentration at either pH 3.61 or pH 7.34. For pH 3.61 fluorescence was excited at λex = 379 nm and fluorescence emission measured at λem = 498 nm, and for pH 7.34 fluorescence was excited at λex = 483 nm and fluorescence emission measured at λem = 503 nm. At each pH, background fluorescence endpoints of wells with identical chromophore concentrations but purified protein replaced with an identical volume of buffer were measured, and fluorescence endpoints subtracted from those measured with protein. Background-subtracted data were normalized from 0 to 1 and fit to a single-binding site isotherm function using non-linear least squares fitting to obtain the reported Kd values, which were less than the protein concentrations tested.

Series [2] deals with T4, mFAP_pH. Briefly: Fluorescence titration of DFHBI into 500 nM protein in Na2HPO4-citrate buffer with 143 mM NaCl at pH 7.34 (excitation 483 nm, emission 503 nm), fit to a single-binding site isotherm. The conditions noted are these: read-out: affinities (Kd values), phenolate form of DFHBI. As to the method: as §3
A short description of series [3]: pH-dependent fluorescence assays (pH titration). The conditions noted are these: from pH 8.38 to pH 4.79. Type of series: biochemical. On the procedure:
In measuring pH-dependent fluorescence (Fig. 3d–i), Na2HPO4-citrate buffer supplemented with 150 mM NaCl at unique pH values were produced via mixing various volumes of 100 mM citric acid (Sigma Aldrich), 200 mM Na2HPO4 (Sigma Aldrich), and 2.00 M NaCl, and final pHs quantified via an Accumet AB15 Basic pH meter (Fisher Scientific). pHRed and pHluorin2 were produced via large-scale protein purification, 6xHis-tag removal and size-exclusion chromatography (SEC) purification, and mFAP_pH and mFAP2b were produced via large-scale protein purification and SEC purification. pH-dependent fluorescence was measured at […] final protein concentration for mFAP2b, mFAP_pH and pHRed, and 170 nM final concentration for pHluorin2, at each pH in technical triplicate in 200 μL final volumes per well. […] In measuring fluorescence excitation spectra at each pH (Fig. 3d), excitation wavelengths were set to the range λex = 300–530 nm and fluorescence emission measured at λem = 562 nm. In measuring pH-dependent fluorescence excitation spectra at pH 3.76 and pH 7.34 (Fig. 3f, g), excitation spectra were measured using excitation wavelengths in the range λex = 300–540 nm and emission wavelength λem = 592 nm. […]

For series [4] the following is noted: cited from earlier work.
Another series has as its system SERCA pumps. In words: Pharmacological inhibition of SERCA Ca2+ pumps in cardiomyocytes. Conditions: 20.0 µM final; 3.00 µM DFHBI. Type of series: cell-based, human. As to the method: Pharmacological inhibition of SERCA Ca^2+ pumps: Cardiomyocytes in 2.0 mL of Tyrode’s solution labeled with 3.00 µM DFHBI were imaged at 2 Hz for 30 min with an sCMOS camera (Photometrics Prime95B) and 20x magnification lens (Leica HCX PL FLUOTAR L 20x/0.40 NA CORR). A stock solution of 20.0 mM cyclopiazonic acid (CPA) (Tocris, 1235) in 100% anhydrous DMSO was prepared. Two milliliters of Tyrode’s solution containing 3.00 µM DFHBI and 40.0 µM CPA was administered at ~10 min from initial image acquisition to inhibit SERCA pumps and disrupt Ca^2+ recovery into the SR after contraction. Fluorescence fold-change over the whole field of view in each frame was calculated by Eq. (11), where F is the fluorescence per frame, and F0 is the fluorescence at the first frame (Supplementary Fig. 19c).

Consider `CC1=N/C(=C\c2cc(F)c(O)c(F)c2)C(=O)N1CC(F)(F)F` [DFHBI-1T, (Z)-4-(3,5-difluoro-4-hydroxybenzylidene)-2-methyl-1-(2,2,2-trifluoroethyl)-1H-imidazol-5(4H)-one], for which the values for the Kd at mFAP2b, on mFAP2a and at mFAP10 were 11000 ± 3100 nM, 5800 ± 860 nM and 45 ± 6.5 nM, respectively.
For the molecule `CC1=N/C(=C\c2cc(F)c(O)c(F)c2)C(=O)N1C` [DFHBI], the Kd is 1800 ± 250 nM at mFAP2b; 150 ± 11 nM on mFAP2a; 17 ± 7.9 nM at mFAP10; about 190 nM at mFAP_pH [1]; about 160 nM on mFAP_pH [2].
For “pHRed: previously reported pH sensor protein [reference compound]”, the “fold-change in ratiometric fluorescence (Fratio)” value in series [3] is reported as ~ 34 fold.
Consider `CC1=N/C(=C\c2cc(F)c(O)c(F)c2)C(=O)N1CC(F)(F)F` [DFHBI-1T, (Z)-4-(3,5-difluoro-4-hydroxybenzylidene)-2-methyl-1-(2,2,2-trifluoroethyl)-1H-imidazol-5(4 H)-one], for which the Reported quantum yield in series [4] is 0.00098^e.
Turning to `CC(=O)C1=C(O)[C@@H]2[C@H]3c4c[nH]c5cccc(c45)C[C@H]3C(C)(C)N2C1=O` [cyclopiazonic acid], the “effect on SR fluorescence of EF1n_mFAP2b sensor” value in the series with SERCA pumps is given as “sustained increase in fluorescence in the SR”.
Consider `CC1=N/C(=C\c2cc(F)c(O)c(F)c2)C(=O)N1C` [DFHBI, 3,5-difluoro-4-hydroxybenzylidene imidazolinone], for which, in series [4], the Absolute quantum yield is reported as 0.001^f and the Reported quantum yield was 0.0007^e. The pKa in series [4] (free, unbound in solution) is listed as ~ 5.4.
